Data published in ChEMBL document CHEMBL5108009, “Positron Emission Tomography (PET) Imaging Tracers for Serotonin Receptors” (J Med Chem, 2022).
pKi: −log10 of the molar value.

Tests used:
[1] = target: T1, 5-hydroxytryptamine receptor 7 (Homo sapiens, UniProt P34969); experiment: Binding affinity to human recombinant 5-HT7 receptor expressed in CHO cells assessed as inhibition constant; type: cell-based
[2] = Binding affinity to pig 5-HT1B receptor (unknown origin) assessed as inhibition constant
[3] = target: T2, 5-hydroxytryptamine receptor 2C (Homo sapiens) (UniProt P28335); experiment: Agonist activity at 5-HT2C receptor (unknown origin); type: functional; conditions: filed as agonist
T2 sequence (whole entry): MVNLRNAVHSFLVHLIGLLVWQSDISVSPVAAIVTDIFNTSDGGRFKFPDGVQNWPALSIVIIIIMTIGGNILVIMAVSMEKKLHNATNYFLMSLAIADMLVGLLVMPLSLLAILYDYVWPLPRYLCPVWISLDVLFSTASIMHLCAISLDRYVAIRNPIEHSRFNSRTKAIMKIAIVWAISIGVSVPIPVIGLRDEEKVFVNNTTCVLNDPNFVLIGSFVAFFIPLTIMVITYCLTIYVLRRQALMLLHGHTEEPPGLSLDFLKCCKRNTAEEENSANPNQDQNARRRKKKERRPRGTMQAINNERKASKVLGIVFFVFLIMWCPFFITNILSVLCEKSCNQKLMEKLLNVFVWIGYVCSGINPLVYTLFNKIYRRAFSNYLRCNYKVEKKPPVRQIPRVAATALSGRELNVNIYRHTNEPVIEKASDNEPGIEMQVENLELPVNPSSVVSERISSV

[4] = target: T2, 5-hydroxytryptamine receptor 2C (Homo sapiens); experiment: Binding affinity to 5-HT2C (unknown origin); conditions: filed as agonist
[5] = Ratio of drug uptake in rat hippocampus to cerebellum by measuring radioactivity at […], iv; type: ADME, tissue-based; conditions: in vivo, dose 25-30 mCi
[6] = Ratio of drug uptake in rhesus monkey temporal cortex to cerebellum assessed as non-displaceable binding potential; type: ADME, tissue-based, Macaca mulatta; conditions: in vivo
[7] = target: 5-hydroxytryptamine receptor 1B (Homo sapiens, UniProt P28222)
[8] = target: 5-hydroxytryptamine receptor 5A (Homo sapiens, UniProt P47898); experiment: Binding affinity to 5-HT5A receptor (unknown origin) assessed as inhibition constant
[9] = target: T1, 5-hydroxytryptamine receptor 7
[10] = target: 5-hydroxytryptamine receptor 2B (Homo sapiens, UniProt P41595)
[11] = target: T3, 5-hydroxytryptamine receptor 1A (Homo sapiens, UniProt P08908)
T3 sequence (P08908 whole entry): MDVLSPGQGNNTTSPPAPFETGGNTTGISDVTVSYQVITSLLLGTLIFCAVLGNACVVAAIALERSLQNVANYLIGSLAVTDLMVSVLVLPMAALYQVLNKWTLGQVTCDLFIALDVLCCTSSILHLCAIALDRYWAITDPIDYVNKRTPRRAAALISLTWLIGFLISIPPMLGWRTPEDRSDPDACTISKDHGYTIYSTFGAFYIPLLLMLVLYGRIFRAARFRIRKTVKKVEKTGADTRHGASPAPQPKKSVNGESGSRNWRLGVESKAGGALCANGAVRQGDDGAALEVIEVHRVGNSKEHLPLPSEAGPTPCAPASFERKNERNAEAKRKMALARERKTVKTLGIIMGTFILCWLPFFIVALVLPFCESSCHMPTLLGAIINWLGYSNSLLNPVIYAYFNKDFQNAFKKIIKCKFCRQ

[12] = target: T4, 5-hydroxytryptamine receptor 2C (Homo sapiens, UniProt P28335)
T4 sequence (P28335 whole entry): T2 sequence (whole entry)

[13] = target: 5-hydroxytryptamine receptor 1D (Homo sapiens, UniProt P28221); experiment: Binding affinity to 5-HT1D (unknown origin) assessed as inhibition constant
[14] = Drug uptake in pig brain cortex measured at 10 to 20 mins postinjection; type: ADME, organism-based, Sus scrofa; conditions: in vivo, time 10-20 min
[15] = target: T5, Alpha-1A adrenergic receptor (Homo sapiens, UniProt P35348); experiment: Binding affinity to alpha 1A adrenergic receptor (unknown origin) assessed as inhibition constant
T5 sequence (P35348 whole entry): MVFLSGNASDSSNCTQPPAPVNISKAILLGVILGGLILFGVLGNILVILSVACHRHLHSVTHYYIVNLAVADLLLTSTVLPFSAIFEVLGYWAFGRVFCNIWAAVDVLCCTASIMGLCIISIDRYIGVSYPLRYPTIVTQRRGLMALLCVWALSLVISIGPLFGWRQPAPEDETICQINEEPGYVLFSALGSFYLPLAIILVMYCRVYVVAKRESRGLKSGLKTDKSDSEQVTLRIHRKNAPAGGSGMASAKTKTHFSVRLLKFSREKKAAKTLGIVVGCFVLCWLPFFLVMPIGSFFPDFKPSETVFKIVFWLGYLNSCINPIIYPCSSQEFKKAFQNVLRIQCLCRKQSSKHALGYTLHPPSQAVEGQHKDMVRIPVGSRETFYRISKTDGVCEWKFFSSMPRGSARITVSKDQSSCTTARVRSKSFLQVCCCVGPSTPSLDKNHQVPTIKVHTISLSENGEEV

[16] = target: T3, 5-hydroxytryptamine receptor 1A; remark: listed apart in the source
[17] = Ratio of drug uptake in rat temporal cortex to cerebellum by measuring radioactivity at 20 mins postinjection; type: ADME, organism-based; conditions: in vivo
[18] = Ratio of drug uptake in rat temporal cortex to cerebellum by measuring radioactivity at 10 mins postinjection; type: ADME, organism-based; conditions: in vivo
[19] = Lipophilicity, logD of the compound at pH 7.4; type: physicochemical; conditions: buffer
[20] = target: 5-hydroxytryptamine receptor 2A (Homo sapiens, UniProt P28223)
[21] = target: T3, 5-hydroxytryptamine receptor 1A; experiment: Binding affinity to 5-HT1A receptor in human HeLa cell membrane assessed as inhibition constant by Packard top-counter analysis; type: cell membranes
[22] = Drug uptake in cynomolgus monkey in brain administered IV measured at 7.5 mins relative to control; type: ADME, tissue-based, Macaca fascicularis; conditions: in vivo, 0.125 h
[23] = Drug uptake in pig brain cortex assessed as non-displaceable binding potential; type: ADME, tissue-based, Sus scrofa; conditions: in vivo

T1 sequence (P34969 whole entry): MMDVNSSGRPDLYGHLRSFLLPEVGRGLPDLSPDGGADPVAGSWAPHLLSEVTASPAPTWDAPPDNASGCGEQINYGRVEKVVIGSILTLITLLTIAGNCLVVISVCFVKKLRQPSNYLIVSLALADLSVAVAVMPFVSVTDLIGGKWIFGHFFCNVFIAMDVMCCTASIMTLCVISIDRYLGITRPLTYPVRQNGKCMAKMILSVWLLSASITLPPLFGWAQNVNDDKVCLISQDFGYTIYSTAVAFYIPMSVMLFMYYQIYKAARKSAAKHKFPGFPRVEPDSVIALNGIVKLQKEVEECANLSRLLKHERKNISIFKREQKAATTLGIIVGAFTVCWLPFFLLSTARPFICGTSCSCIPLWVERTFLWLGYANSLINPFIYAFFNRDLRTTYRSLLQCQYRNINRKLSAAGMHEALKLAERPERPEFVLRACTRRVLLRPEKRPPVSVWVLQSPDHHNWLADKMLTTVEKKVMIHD
Sequence of 5-hydroxytryptamine receptor 2B (P41595 whole entry): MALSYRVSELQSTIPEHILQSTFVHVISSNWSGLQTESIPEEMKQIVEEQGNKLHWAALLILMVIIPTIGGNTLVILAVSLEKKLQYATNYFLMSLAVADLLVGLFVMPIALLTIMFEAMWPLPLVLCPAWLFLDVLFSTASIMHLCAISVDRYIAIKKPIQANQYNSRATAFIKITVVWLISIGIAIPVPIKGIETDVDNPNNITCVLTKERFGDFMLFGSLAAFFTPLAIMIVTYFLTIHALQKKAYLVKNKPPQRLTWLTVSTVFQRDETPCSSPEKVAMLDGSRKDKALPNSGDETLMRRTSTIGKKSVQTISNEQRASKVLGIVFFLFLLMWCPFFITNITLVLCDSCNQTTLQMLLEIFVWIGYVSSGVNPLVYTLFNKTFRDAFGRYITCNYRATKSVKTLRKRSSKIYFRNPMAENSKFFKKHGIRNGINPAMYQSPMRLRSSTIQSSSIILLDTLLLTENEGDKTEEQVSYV
Sequence of 5-hydroxytryptamine receptor 1B (P28222 whole entry): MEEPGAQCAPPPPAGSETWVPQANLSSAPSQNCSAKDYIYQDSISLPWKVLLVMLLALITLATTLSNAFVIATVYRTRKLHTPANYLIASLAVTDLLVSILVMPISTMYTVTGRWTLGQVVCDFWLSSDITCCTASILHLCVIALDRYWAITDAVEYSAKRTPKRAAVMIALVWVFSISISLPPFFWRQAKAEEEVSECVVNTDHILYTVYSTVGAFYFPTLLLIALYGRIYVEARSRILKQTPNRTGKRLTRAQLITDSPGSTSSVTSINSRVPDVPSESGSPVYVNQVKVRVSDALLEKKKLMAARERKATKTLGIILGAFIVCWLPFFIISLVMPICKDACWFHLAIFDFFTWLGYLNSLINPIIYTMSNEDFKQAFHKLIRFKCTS
Sequence of 5-hydroxytryptamine receptor 2A (P28223 whole entry): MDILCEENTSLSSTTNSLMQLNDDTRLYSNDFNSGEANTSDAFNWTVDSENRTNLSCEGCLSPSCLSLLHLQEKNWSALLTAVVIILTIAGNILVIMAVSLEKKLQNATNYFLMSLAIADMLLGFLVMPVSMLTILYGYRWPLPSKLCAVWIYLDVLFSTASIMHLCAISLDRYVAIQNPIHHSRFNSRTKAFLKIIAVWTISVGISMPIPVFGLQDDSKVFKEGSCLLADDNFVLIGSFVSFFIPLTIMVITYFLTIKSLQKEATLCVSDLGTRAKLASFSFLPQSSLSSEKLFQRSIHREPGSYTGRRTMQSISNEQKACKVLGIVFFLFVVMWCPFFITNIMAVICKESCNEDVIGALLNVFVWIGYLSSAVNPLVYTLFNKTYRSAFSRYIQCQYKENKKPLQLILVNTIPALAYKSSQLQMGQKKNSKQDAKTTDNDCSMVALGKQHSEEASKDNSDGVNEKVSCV
Sequence of 5-hydroxytryptamine receptor 1D (P28221 whole entry): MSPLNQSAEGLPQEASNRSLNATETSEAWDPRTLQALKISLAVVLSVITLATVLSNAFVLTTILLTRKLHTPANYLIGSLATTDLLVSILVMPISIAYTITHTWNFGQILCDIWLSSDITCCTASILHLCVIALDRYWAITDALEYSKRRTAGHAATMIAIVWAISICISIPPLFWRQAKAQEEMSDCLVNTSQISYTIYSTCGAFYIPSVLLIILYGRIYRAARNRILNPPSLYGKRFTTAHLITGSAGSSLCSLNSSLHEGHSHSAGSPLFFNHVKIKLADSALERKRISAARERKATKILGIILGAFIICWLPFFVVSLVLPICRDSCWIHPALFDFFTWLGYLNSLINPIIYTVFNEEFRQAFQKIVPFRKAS
Sequence of 5-hydroxytryptamine receptor 5A (P47898 whole entry): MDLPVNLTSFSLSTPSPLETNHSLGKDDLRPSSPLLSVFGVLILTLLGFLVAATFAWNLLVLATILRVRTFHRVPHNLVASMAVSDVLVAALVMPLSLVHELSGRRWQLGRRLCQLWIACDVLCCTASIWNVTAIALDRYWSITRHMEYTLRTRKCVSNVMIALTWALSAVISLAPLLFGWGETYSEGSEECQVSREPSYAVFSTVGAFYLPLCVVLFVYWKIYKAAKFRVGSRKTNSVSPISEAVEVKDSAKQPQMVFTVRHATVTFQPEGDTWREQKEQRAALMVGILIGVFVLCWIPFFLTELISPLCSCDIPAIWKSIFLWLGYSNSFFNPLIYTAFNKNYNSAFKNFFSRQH

O=S(=O)(c1ccccc1F)N1CCC[C@@H]1CCCN1CCN(c2ccccn2)CC1
pKi [1]: 9.77

CN1CCN(c2cccc3c2C[C@@H](NC(=O)c2ccc(N4CCOCC4)cc2)CC3)CC1
pKi [2]: 9.34

c1cc2c3c(c1)[C@H]1CCC[C@H]1CN3CCNC2
K [3]: 8 nM | K [4]: 3 nM

O=C(C1CCCCC1)N(CCN1CCN(c2ccccc2OCCC[18F])CC1)c1ccccn1
Ratio [5]: 7.5

COc1ccccc1N1CCN(CCN(c2ccccn2)C(=O)[C@H]2CC[C@@H](C[18F])CC2)CC1
Ratio [6]: 0.58

CC(=O)Nc1ccc2[nH]cc(C3CCN(C)CC3)c2n1
pKi [7]: < 6.62 | pKi [8]: < 6.62 | pKi [9]: < 6.62 | pKi [10]: < 6.62 | pKi [11]: < 6.62 | pKi [12]: < 6.62 | pKi [13]: < 6.62

COc1cc(Br)c(O[11CH3])cc1CCNCc1ccccc1OC
SUV [14]: 0.8

COc1ccccc1N1CCN(CCNC(=O)c2ccncc2)CC1
pKi [15]: 7.70

O=S(=O)(c1ccc(F)cc1)N1CCC[C@@H]1CCCN1CCN(c2ccc(Cl)cc2)CC1
pKi [1]: 9.49

CCCN(CCC)[C@@H]1CCc2cccc(SC)c2C1
pKi [16]: 9.22

O=C(C1CCCCC1)N(CCN1CCN(c2ccccc2O)CC1)c1ccccn1
pKi [16]: 8.85 | pKi [15]: 6.44

CC(C)c1cc(-c2ccc(F)c3ccccc23)nc(N)n1
pKi [10]: 9.52

[11CH3]Sc1cccc(C(=O)NC[C@H]2CCCN2CCc2ccccc2)c1
pKi [16]: 6.80

COc1ccccc1N1CCN(CCN(c2cccc(F)n2)[11C](=O)N2CCCCC2)CC1
Ratio [17]: 3 | Ratio [18]: 1.9

CC1(NC(=O)c2ccc(N)cc2)CCN(CCCOc2ccc([18F])cc2)CC1
logD [19]: 2.53

COc1ccccc1N1CCN(CCCN/C(=N\C#N)c2ccccn2)CC1
pKi [15]: 7.70

COc1cc(CCNCc2ccccc2OC)c(O[11CH3])cc1I
SUV [14]: 0.8

c1cc2c3c(c1)[C@H]1CCC[C@H]1N3CCNC2
K [3]: 8 nM | K [4]: 10 nM

COc1cc(Br)c(OC)c(CCNCc2cccc(F)c2)c1
pKi [20]: 8.57

COc1ccccc1N1CCN(CCN(C(=O)N2CCCCC2)c2cccc(Br)n2)CC1
pKi [21]: 9.51

COc1ccccc1N1CCN(CCN(C(=O)c2ccc(F)c(C)c2)c2ccccn2)CC1
pKi [15]: 7.89

CCCN(CCCCC1C(=O)CC2(CCCC2)CC1=O)[C@H]1CCc2cccc(OC)c2C1
pKi [16]: 9.05

Cc1ccc(N2CCN([11CH3])CC2)c2nc(C(=O)Nc3ccc(N4CCOCC4)cc3)ccc12
pKi [2]: 9.70

O=C(C1CCCCC1)N(CCN1CCN(c2ccccc2OCC[18F])CC1)c1ccccn1
Ratio [5]: 5.5

COc1ccccc1N1CCN(CCN(c2cccc(F)n2)[11C](=O)C2CCCCC2)CC1
Drug uptake [22]: 8%

[11CH3]N1CCN(c2cccc3c2O[C@H](C(=O)Nc2ccc(N4CCOCC4)cc2)CC3)CC1
pKi [2]: 9.22

COC(=O)N1CCN(c2ccc(NC(=O)C3CCc4cc(F)cc(N5CCN([11CH3])CC5)c4O3)cc2)CC1 (stereo not drawn)
pKi [2]: 9.30

COc1cc(C(F)(F)F)c(OC)cc1CCNCc1ccccc1O[11CH3]
Drug uptake [23]: 0.82
